Laboratory results taken from patent US20100292137A1, “Antibiotics and Methods For Producing Them” (priority 2006, published 2010).
Values after ≈ are worked out from the molar mass of the structure shown. Starred links: 1 amine or outer side, 2 acyl side, 3 side chain; linkers in the order of their positions; H or OH if unused. Positions of bridges follow the written chain, without caps; N, C: chain ends. Non-standard residues stand in square brackets, D forms with d. Residues, ends and D or L forms follow the SMILES beside them. *: point of attachment. X1 = NC1=N[C@@H]([C@H](N[*:1])C(=O)[*:2])C[C@H](O)N1; ΔAla(Z-3-ureido) = NC(=O)N/C=C(\N)C(=O)O; β3hOrn = NCCC[C@H](N)CC(=O)*; Dap = NC[C@H](N)C(=O)O

Assays:
E. coli DH1 = test: microbe, parasite or virus in culture; assay type: cell-based; settings: Escherichia coli, DH1, read-out: Minimal inhibitory concentrations
E. coli strain AS19 = test: Agar plate MIC on hyperpermeable E. coli AS19; settings: Escherichia coli
Description: Escherichia coli strain DH1 was used for cloning and expressing recombinant tlyA, and was grown by standard techniques (Sambrook et al., 1989). The hyperpermeable E. coli strain AS19 (Sekiguchi and Iida, 1967) was additionally used to express tlyA.
Overnight cultures of E. coli DH1 and AS19 strains were diluted 10^5-fold and plated onto agar containing viomycin (US Pharmacopeia), capreomycin, kanamycin or rifampicin (Sigma) with concentrations increasing in two-fold steps. The agar plates were incubated at 37° C.; and after 22 h, MICs were scored as the lowest concentration at which no growth was observed.

M. smegmatis [1] = settings: tlyA mutant P2U; cited from earlier work
M. smegmatis [2] = test: microbe, parasite or virus in culture; assay type: cell-based, Mycobacterium smegmatis
[3] = tested on: S. coelicolor M145 and derived mutants; assay type: cell-based, Streptomyces coelicolor
S. avermitilis MA4630 = assay type: cell-based, Streptomyces avermitilis
[4] = tested on: 70S ribosome (30S, 50S and 70S particles); assay type: binding, Mycobacterium smegmatis

Compound: CO[C@H]1/C=C/O[C@@]2(C)Oc3c(C)c(O)c4c(O)c(c(/C=N/N5CCN(C)CC5)c(O)c4c3C2=O)NC(=O)/C(C)=C\C=C\[C@H](C)[C@H](O)[C@@H](C)[C@@H](O)[C@@H](C)[C@H](OC(C)=O)[C@@H]1C [rifampicin]
- MIC (E. coli DH1): 4 µg/mL (≈ 4.86 µM)
- MIC (E. coli strain AS19): 0.1 µg/mL (≈ 0.122 µM)

Compound: NC[C@H]1O[C@H](O[C@H]2[C@H](O)[C@@H](O[C@H]3O[C@H](CO)[C@@H](O)[C@H](N)[C@H]3O)[C@H](N)C[C@@H]2N)[C@H](O)[C@@H](O)[C@@H]1O [kanamycin]
- MIC (E. coli DH1): 4 µg/mL (≈ 8.26 µM)

Compound: NCC[C@H](O)C(=O)N[C@@H]1C[C@H](N)[C@@H](O[C@H]2O[C@H](CN)[C@@H](O)[C@H](O)[C@H]2O)[C@H](O)[C@H]1O[C@H]1O[C@H](CO)[C@@H](O)[C@H](N)[C@H]1O [amikacin]
- susceptibility (M. smegmatis [1]): susceptible

Compound: capreomycin
- MIC, minimal inhibitory concentration of capreomycin (M. smegmatis [2]): <10 µg/mL
- MIC value [3]: 1 to 5 µg/mL
- capreomycin concentration above which the strain is unable to grow [3]: 5 µg/mL
- capreomycin concentration at which the strain grew very well [3]: 100 µg/mL
- capreomycin concentration at which the strain still grows [3]: 100 µg/mL
- capreomycin sensitivity after complementation [3]: regained capreomycin sensitivity
- resistance relative to parent M145 [3]: more than 100 fold
- MIC value (S. avermitilis MA4630): 1 to 5 µg/mL
- binding interactions with the ribosome (footprints) [4]: occur only when the ribosomal subunits are associated into 70S couples

Compound: NCCC[C@H](N)CC(=O)N[C@H]1CNC(=O)[C@H]([C@H]2C[C@H](O)NC(N)=N2)NC(=O)/C(=C/NC(N)=O)NC(=O)[C@H](CO)NC(=O)[C@H](CO)NC1=O [viomycin] (β3hOrn-[Dap]SS[ΔAla(Z-3-ureido)][X1]; lactam 1-C)
- MIC (M. smegmatis [2]; Mycolicibacterium smegmatis): 20 to 40 µg/mL (≈ 29.2 to 58.3 µM)
- binding interactions with the ribosome (footprints) [4]: occur only when the ribosomal subunits are associated into 70S couples
